Converted amounts (≈) assume the structure as drawn.

In one experiment the test system is Staphylococcus aureus. Put plainly: Antimicrobial activity against Staphylococcus aureus 134/94 by agar plate diffusion assay. Format: functional.
For another experiment, the system named is Enterococcus faecium. Put plainly: Antimicrobial activity against Enterococcus faecium 1528 by agar plate diffusion assay. Format: functional.
For the next experiment, the system named is L929. Put plainly: Cytotoxicity against mouse L929 cells after 72 hrs by methylene blue staining. Type of experiment: cell-based. As to conditions: L929, 72 h.
A further experiment concerns Candida albicans. Put plainly: Antimicrobial activity against Candida albicans by agar plate diffusion assay. Type of experiment: functional.
The next experiment deals with HeLa. Put plainly: Cytotoxicity against human HeLa cells by methylene blue staining. Format: functional, cell-based.
A further experiment deals with K562. Put plainly: Cytotoxicity against human K562 cells after 72 hrs. As to conditions: K562, 72 h. Format: functional, cell-based.
A further experiment deals with Mycobacterium sp. Put plainly: Antimicrobial activity against Mycobacterium sp. SG 987 by agar plate diffusion assay. Format: functional.
Another experiment relates to Bacillus subtilis. Put plainly: Antimicrobial activity against Bacillus subtilis ATCC 6633 by agar plate diffusion assay. Format: functional.

Take `CC[C@@H]1[C@@H](C)O[C@@](OC)([C@@H](C)[C@H](O)[C@H](C)[C@H]2OC(=O)/C=C/C=C/[C@H](C)[C@@H]([C@@H](C)[C@@H](O)[C@H](C)[C@@]3(OC)C[C@@H](O[C@H]4C[C@H](O)[C@H](O)[C@H](C)O4)[C@H](CC)[C@@H](C)O3)OC(=O)/C=C/C=C/[C@@H]2C)C[C@H]1O[C@H]1C[C@H](O)[C@H](O)[C@H](C)O1`: the “inhibition zone (IZ)” value in the experiment with Staphylococcus aureus came out at 13 mm; in the experiment on Enterococcus faecium it was 17 mm; in the experiment on Candida albicans, 0 mm; in the experiment with Mycobacterium sp., 15 mm; in the experiment on Bacillus subtilis it was 23 mm. For the same molecule, the IC50 (usually the concentration at which inhibition is half-maximal) with L929 is 2.4 µg/mL (≈ 2.28 µM); in the experiment on HeLa, 2.2 µg/mL (≈ 2.09 µM); in the experiment with K562 it was 1.3 µg/mL (≈ 1.23 µM).

For the origin of these results see ChEMBL document CHEMBL1151303, “New macrodiolide antibiotics, 11-O-monomethyl- and 11, 11'-O-dimethylelaiophylins, from Streptomyces sp. HKI-0113 and HKI-0114” (J Nat Prod, 1998).
